Source: paper PMC6792352, “Limited Chemical Structural Diversity Found to Modulate Thyroid Hormone Receptor in the Tox21 Chemical Library” (Environmental Health Perspectives, 2019)
Counter-ions that a name gives are not always drawn.

Assay: in vitro
Settings: rat, gh3-tre-luc cells

Compound | CC50 at 24 h (AC50 (uM) modified / 1000) | also measured
NC(=O)Cc1cccc(C(=O)c2ccccc2)c1N [Nepafenac] | > 50 µM | –
CCCCCCCCCCO [1-Decanol] | > 90 µM | –
NCCCN(CCO)CCO [2,2'-[(3-Aminopropyl)imino]diethanol] | > 90 µM | –
COc1cc(Nc2c(C#N)cnc3cc(OCCCN4CCN(C)CC4)c(OC)cc23)c(Cl)cc1Cl [Bosutinib methanoate] | 8.85 µM | –
N[C@H](C(=O)O)[C@H](O)c1ccc(O)c(O)c1 [Droxidopa] | > 50 µM | –
CCOc1ccc(N)c([N+](=O)[O-])c1 [4-Ethoxy-2-nitroaniline] | > 90 µM | –
CCC(=O)c1ccc2c(c1)N(CCCN1CCN(CCO)CC1)c1ccccc1S2 [Carphenazine dimaleate] | 6.82 µM | –
CCn1cc(C(=O)O)c(=O)c2cc(F)c(N3CCNCC3)nc21 [Enoxacin] | > 20 µM | –
CCOc1ccc(S(=O)(=O)O)c2cccnc12 [Actinoquinol] | > 50 µM | –
CN1CCCN(C(c2ccccc2)c2ccc(Cl)cc2)CC1 (stereo not drawn) [Homochlorcyclizine] | 7.44 µM | –
CCNC(=O)C1CC(C)CCC1C(C)C (stereo not drawn) [N-Ethyl-4-menthane-3-carboxamide] | > 90 µM | –
CC(C)C(=O)c1ccccc1 [Isopropyl phenyl ketone] | > 90 µM | –
BrCCCCCCBr [1,6-Dibromohexane] | – | CC50 at 24 h (AC50 (uM) modified / 1000, Tox21_110001=Tox21_302059, viability, 1 nM T3 present, 24 h): > 90 µM
Cc1ccc2c(c1)CCCN2 [6-Methyl-1,2,3,4-tetrahydroquinoline] | > 90 µM | –
CN(c1nccc(=O)[nH]1)C1CCN(c2nc3ccccc3n2Cc2ccc(F)cc2)CC1 [Mizolastine] | > 50 µM | –
CCC(=O)[C@@]1(C)[C@H](C)C[C@H]2[C@@H]3CCC4=CC(=O)C=C[C@]4(C)[C@H]3[C@@H](O)C[C@@]21C [Rimexolone] | > 20 µM | –
C1COCCO1 [1,4-Dioxane] | > 90 µM | –
C/C=C1/C(=O)C[C@H]2[C@@H]3CCC4=CC(=O)CC[C@]4(C)[C@H]3CC[C@]12C [Guggulsterone E] | > 90 µM | –
CC(=O)N(CC(C)C(=O)O)c1c(I)cc(I)c(N)c1I (stereo not drawn) [Iocetamic acid] | > 20 µM | –
CO[C@H](C(=O)[C@@H](O)[C@@H](C)O)[C@@H]1Cc2cc3cc(O[C@H]4C[C@@H](O[C@H]5C[C@@H](O)[C@H](O)[C@@H](C)O5)[C@H](O)[C@@H](C)O4)c(C)c(O)c3c(O)c2C(=O)[C@H]1O[C@H]1C[C@@H](O[C@H]2C[C@@H](O[C@H]3C[C@](C)(O)[C@H](O)[C@@H](C)O3)[C@@H](O)[C@@H](C)O2)[C@H](O)[C@@H](C)O1 [Plicamycin] | 0.413 µM | –
S=C1SCN(Cc2ccccc2)CN1Cc1ccccc1 [Sulbentine] | 23.1 µM | –
CS(=O)(=O)OC[C@H](O)[C@@H](O)COS(C)(=O)=O [Treosulfan] | > 50 µM | –
CN(C)CCC(c1ccccc1)c1ccccn1 (stereo not drawn) [Pheniramine maleate] | > 90 µM | –
CC1(C)[C@@H]2CC[C@@]1(C)[C@H](O)C2 [Isoborneol] | > 90 µM | –
CN1CCN(C(c2ccccc2)c2ccccc2)CC1 [Cyclizine hydrochloride] | > 20 µM | –
COc1ccc(C[C@H](C)NC[C@@H](O)c2ccc(O)c(NC=O)c2)cc1 [Formoterol hemifumarate dihydrate] | > 50 µM | –

Compound | CC50 at 24 h (AC50 (uM) modified / 1000) | also measured
O=S(=O)(O)C(F)(F)C(F)(F)C(F)(F)C(F)(F)C(F)(F)C(F)(F)C(F)(F)C(F)(F)F [Potassium perfluorooctanesulfonate] | – | CC50 at 24 h (AC50 (uM) modified / 1000, Tox21_110001=Tox21_300544, viability, 1 nM T3 present, 24 h): 49.4 µM
CCCCC(CC)COC(=O)COc1ccc(Cl)cc1C (stereo not drawn) [MCPA-2-ethylhexyl] | > 90 µM | –
CC(=O)OCCN(CCOC(C)=O)c1ccc(N=Nc2ccc([N+](=O)[O-])cc2C#N)cc1 [Disperse Red 82] | 54 µM | –
CCOC(=O)NNc1ccc(N(CC)CC(C)O)nn1 (stereo not drawn) [Cadralazine] | > 50 µM | –
CCCCOCCO [2-Butoxyethanol] | > 90 µM | –
C=CC1=C(C(=O)O)N2C(=O)[C@@H](NC(=O)/C(=N\OCC(=O)O)c3csc(N)n3)[C@H]2SC1 [Cefixime] | > 20 µM | –
Cc1cc(O)c(C(C)C)cc1Cl [6-Chlorothymol] | 66.1 µM | –
CC(C)COC(=O)c1ccccc1C(=O)OCC(C)C [Diisobutyl phthalate] | > 90 µM | –
CCCCCCCCCCCCCCCCN(C)C [Dimethylcetylamine] | > 5 µM | –
Cc1cc(Cl)ccc1N [4-Chloro-2-methylaniline hydrochloride] | > 90 µM | –
C#CC(O)CCCCC (stereo not drawn) [1-Octyn-3-ol] | > 90 µM | –
CC(=O)OC(C)(C)C [tert-Butyl acetate] | > 90 µM | –
CCCCCCOC(=O)CCCCCCCC(=O)OCCCCCC [Dihexyl nonanedioate] | > 90 µM | –
COc1nc(NC(C)C)nc(NC(C)C)n1 [Prometon] | – | CC50 at 24 h (AC50 (uM) modified / 1000, Tox21_110001=Tox21_202098, viability, 1 nM T3 present, 24 h): > 90 µM
O=C(C(=O)c1ccc(Br)cc1)c1ccc(Br)cc1 [4,4'-Dibromobenzil] | > 30 µM | –
O=C1CCCN1CCO [1-(2-Hydroxyethyl)pyrrolidin-2-one] | > 90 µM | –
O=C(O)C(O)[C@H](O)[C@@H](O)[C@H](O)[C@H](O)CO (stereo partly drawn) [D-Gluco-heptonic acid, monosodium salt] | > 90 µM | –
O=C(/C=C/c1ccccc1)OCc1ccccc1 [Benzyl cinnamate] | > 90 µM | –
NCCN [Ethylenediamine] | > 90 µM | –
Nc1cccc(O)c1 [3-Aminophenol] | > 90 µM | –
CCc1ccc(S(=O)(=O)O)cc1 [4-Ethylbenzenesulfonic acid] | > 50 µM | –
CC(C)CO [2-Methyl-1-propanol] | > 90 µM | –
Cc1ccc(S(=O)(=O)O)cc1 [4-Methylbenzenesulfonic acid] | > 90 µM | –
O=C(O)C(Cl)(Cl)Br [Bromodichloroacetic acid] | – | CC50 at 24 h (AC50 (uM) modified / 1000, Tox21_110001=Tox21_200923, viability, 1 nM T3 present, 24 h): > 90 µM
CCc1ccccc1N [2-Ethylaniline] | > 90 µM | –
CN(C)CCCN [3-(Dimethylamino)propylamine] | > 90 µM | –

Compound | CC50 at 24 h (AC50 (uM) modified / 1000) | also measured
Cc1c(C)n(Cc2ccccc2)c2ccc(C(=O)OCCN(C)C)cc12 [Indocate] | 8.6 µM | –
CCCCCCCCCCCCCCCS(=O)(=O)Oc1ccccc1 [C10-21 alkanesulfonic acids phenyl esters] | > 50 µM | –
CCCCCCCCCCCCCCC [Pentadecane] | > 90 µM | –
CN(C)c1ccc(C2(c3ccc(N(C)C)cc3)OC(=O)c3cc(N(C)C)ccc32)cc1 [Crystal Violet lactone] | > 90 µM | –
N=C(N)N [Guanidine carbonate] | > 50 µM | –
CC(=O)SCC(CC(=O)c1ccc(C)cc1)C(=O)O (stereo not drawn) [Esonarimod] | > 50 µM | –
CCc1cccc(C)c1N(C(=O)CCl)C(C)COC (stereo not drawn) [Metolachlor] | > 90 µM | –
CC(C)SCc1ccco1 [Furfuryl isopropyl sulfide] | > 40 µM | –
Cc1cccc2sc3nncn3c12 [2,7,8,9-Tricyclazole] | > 90 µM | –
CCO[Si](C)(CCCOCC1CO1)OCC (stereo not drawn) [Diethoxy(methyl)[3-(oxiran-2-ylmethoxy)propyl]silane] | > 90 µM | –
Cc1ccccc1OCC1CO1 (stereo not drawn) [o-Cresyl glycidyl ether] | > 90 µM | –
O=NN(c1ccccc1)c1ccccc1 [N-Nitrosodiphenylamine] | – | CC50 at 24 h (AC50 (uM) modified / 1000, Tox21_110001=Tox21_201457, viability, 1 nM T3 present, 24 h): > 90 µM
CC(C)C=O [2-Methylpropanal] | > 90 µM | –
O=C(O)CCCOc1ccc(Cl)cc1Cl [2,4-DB-sodium] | > 90 µM | –
CC1(C)S[C@@H]2[C@H](NC(=O)[C@H](NC(=O)N3CCNC3=O)c3ccccc3)C(=O)N2[C@H]1C(=O)O [Azlocillin sodium] | > 20 µM | –
CCC(=O)C(CC(C)N(C)C)(c1ccccc1)c1ccccc1 (stereo not drawn) [Methadone hydrochloride] | 28.5 µM | –
Cc1cc(O)c2ccccc2c1O [Menadiol] | 37.2 µM | –
CC(C)(C)c1ccccc1 [tert-Butylbenzene] | > 90 µM | –
CCOc1cc(C(C)(C)C)ccc1C1COC(c2c(F)cccc2F)=N1 (stereo not drawn) [Etoxazole] | 17.5 µM | –
SC1CCCC1 [Cyclopentanethiol] | > 90 µM | –
CC1(C)C(=O)N(Br)C(=O)N1Cl [3-Bromo-1-chloro-5,5-dimethylhydantoin] | > 90 µM | –
Cc1nnc2n1-c1sc(Br)cc1C(c1ccccc1Cl)=NC2 [Brotizolam] | 32.6 µM | –
CCCCCCCCCCCCCCC[C@H](O)[C@@H](N)CO [Safingol] | > 50 µM | –
CCOC(=O)[C@H](CCc1ccccc1)N[C@@H](C)C(=O)N1[C@H](C(=O)O)C[C@H]2CCCC[C@@H]21 [Trandolapril] | > 50 µM | –
CC1COC(=O)O1 (stereo not drawn) [Propylene carbonate] | > 90 µM | –
Cc1c(Nc2ncccc2C(=O)O)cccc1C(F)(F)F [Flunixin meglumine] | 3.99 µM | –
